Consider 15 compounds from ChEMBL document CHEMBL3991601, “The target landscape of clinical kinase drugs” (Science, 2017).

The target of assay [1] is Midasin (Homo sapiens, UniProt Q9NU22).
Assay [2] addresses T1, Delta(24)-sterol reductase (Homo sapiens, UniProt Q15392).
T1 sequence (Q15392 whole entry): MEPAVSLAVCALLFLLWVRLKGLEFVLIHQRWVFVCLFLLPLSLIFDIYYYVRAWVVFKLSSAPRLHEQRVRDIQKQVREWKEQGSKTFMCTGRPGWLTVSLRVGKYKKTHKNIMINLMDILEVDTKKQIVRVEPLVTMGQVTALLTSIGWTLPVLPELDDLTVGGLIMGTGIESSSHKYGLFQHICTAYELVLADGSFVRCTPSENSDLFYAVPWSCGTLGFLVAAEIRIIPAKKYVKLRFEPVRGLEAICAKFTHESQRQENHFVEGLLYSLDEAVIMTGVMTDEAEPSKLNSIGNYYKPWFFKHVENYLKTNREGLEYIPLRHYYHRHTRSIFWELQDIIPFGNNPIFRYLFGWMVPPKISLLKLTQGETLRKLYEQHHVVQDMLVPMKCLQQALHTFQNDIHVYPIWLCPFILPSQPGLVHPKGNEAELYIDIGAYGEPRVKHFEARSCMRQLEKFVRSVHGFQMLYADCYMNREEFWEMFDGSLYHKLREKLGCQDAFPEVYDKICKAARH

The target in assay [3] is T2, Serine/threonine-protein kinase PLK4 (Homo sapiens, UniProt O00444).
T2 sequence (O00444 whole entry): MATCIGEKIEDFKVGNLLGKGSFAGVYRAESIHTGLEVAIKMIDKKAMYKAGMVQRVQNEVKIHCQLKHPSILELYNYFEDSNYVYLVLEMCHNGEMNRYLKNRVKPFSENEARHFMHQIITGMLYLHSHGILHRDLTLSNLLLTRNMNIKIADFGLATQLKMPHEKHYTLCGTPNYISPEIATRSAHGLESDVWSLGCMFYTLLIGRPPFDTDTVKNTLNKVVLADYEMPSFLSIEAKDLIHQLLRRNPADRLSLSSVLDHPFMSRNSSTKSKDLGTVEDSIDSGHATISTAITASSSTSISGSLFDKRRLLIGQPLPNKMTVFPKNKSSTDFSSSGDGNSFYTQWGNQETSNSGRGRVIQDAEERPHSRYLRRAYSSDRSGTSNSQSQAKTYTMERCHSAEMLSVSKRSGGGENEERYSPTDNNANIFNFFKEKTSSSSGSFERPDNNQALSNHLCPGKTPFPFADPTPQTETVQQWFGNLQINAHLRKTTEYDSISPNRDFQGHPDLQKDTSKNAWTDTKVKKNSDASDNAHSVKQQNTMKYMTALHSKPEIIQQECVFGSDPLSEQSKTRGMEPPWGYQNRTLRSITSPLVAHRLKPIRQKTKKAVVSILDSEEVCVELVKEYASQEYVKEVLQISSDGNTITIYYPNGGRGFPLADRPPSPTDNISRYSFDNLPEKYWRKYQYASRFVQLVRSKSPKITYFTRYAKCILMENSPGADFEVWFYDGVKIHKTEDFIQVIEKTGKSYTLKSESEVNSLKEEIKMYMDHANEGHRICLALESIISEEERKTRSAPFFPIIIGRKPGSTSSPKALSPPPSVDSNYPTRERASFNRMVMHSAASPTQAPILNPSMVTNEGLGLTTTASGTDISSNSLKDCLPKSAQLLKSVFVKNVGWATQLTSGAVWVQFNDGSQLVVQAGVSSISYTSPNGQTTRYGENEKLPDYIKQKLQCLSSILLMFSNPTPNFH

In assay [4] the target is T3, Scaffold protein ILK (Homo sapiens, UniProt Q13418).
T3 sequence (Q13418 whole entry): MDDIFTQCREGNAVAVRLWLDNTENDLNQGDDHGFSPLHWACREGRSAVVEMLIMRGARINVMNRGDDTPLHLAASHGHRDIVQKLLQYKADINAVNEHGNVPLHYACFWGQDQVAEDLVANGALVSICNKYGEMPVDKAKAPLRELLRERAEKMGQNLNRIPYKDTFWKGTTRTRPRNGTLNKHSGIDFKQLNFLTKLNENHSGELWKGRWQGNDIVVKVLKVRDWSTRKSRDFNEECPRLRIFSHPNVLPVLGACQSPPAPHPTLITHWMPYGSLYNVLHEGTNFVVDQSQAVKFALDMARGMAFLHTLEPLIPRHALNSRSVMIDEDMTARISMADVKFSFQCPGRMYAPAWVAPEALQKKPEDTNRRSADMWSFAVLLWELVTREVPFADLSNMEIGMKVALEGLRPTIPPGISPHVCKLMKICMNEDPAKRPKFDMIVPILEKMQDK

Assay [5] has as its target T4, Glycogen phosphorylase, liver form (Homo sapiens, UniProt P06737).
T4 sequence (P06737 whole entry): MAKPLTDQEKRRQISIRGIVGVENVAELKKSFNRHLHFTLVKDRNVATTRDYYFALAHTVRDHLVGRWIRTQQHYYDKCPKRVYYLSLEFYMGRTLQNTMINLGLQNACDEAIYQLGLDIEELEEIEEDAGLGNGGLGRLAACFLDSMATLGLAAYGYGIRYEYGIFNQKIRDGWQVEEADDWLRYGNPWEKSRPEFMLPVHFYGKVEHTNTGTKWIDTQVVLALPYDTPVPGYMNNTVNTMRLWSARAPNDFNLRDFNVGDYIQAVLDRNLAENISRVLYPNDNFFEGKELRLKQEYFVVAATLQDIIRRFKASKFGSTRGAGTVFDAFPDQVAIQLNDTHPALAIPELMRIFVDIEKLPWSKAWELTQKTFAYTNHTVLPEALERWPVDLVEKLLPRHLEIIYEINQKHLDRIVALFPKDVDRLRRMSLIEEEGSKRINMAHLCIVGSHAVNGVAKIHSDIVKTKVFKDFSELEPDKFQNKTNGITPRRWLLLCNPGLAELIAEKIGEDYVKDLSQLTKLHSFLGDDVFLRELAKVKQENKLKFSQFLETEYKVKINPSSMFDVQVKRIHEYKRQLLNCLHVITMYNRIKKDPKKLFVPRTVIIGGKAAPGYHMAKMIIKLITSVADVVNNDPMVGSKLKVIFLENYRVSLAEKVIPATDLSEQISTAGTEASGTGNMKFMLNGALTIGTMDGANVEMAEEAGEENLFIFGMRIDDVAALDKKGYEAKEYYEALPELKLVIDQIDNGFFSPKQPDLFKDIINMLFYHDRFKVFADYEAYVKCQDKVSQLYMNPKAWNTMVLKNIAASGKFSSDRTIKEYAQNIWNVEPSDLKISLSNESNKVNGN
The format is subcellular, K-562, COLO 205, SK-N-BE(2) and MV-4-11, Cell lysate. The settings on record: read-out: Kd apparent.

The target of assay [6] is Adenylate kinase 2, mitochondrial (Homo sapiens, UniProt P54819).

Molecules are shown by their SMILES. Activity calls are given as the source filed them.
Also: in the data inactive means no Kd found up to 30 µM.

`CNC(=O)c1ccc(Nc2ncc(C(F)(F)F)c(NCc3nccnc3N(C)S(C)(=O)=O)n2)cc1` [DEFACTINIB]: the Kd in assay [1], in assay [2], in assay [3], in assay [4], in assay [5] and in assay [6] was > 30 µM (inactive) each time.

Consider `Cc1c(Cn2c(C)nc3c(C(=O)O)cc(N4CCOCC4)cc32)cccc1C(F)(F)F` [GSK-2636771], for which the Kd in assay [1], in assay [2], in assay [3], in assay [4], in assay [5] and in assay [6] was > 30 µM (inactive) each time.

Regarding `Cc1cc(C(=O)Nc2cc(Oc3ccc4nc(NC(=O)C5CC5)cn4n3)ccc2C)n(C)n1` [TAK-593], the Kd in assay [1], in assay [2], in assay [3], in assay [4], in assay [5] and in assay [6] was > 30 µM (inactive) each time.

`C[C@@H]1COC(Nc2ccc3ncnc(Nc4ccc(OCc5nccs5)c(Cl)c4)c3c2)=N1` [VARLITINIB]: the Kd in assay [1], in assay [2], in assay [3], in assay [4], in assay [5] and in assay [6] was > 30 µM (inactive) throughout.

With `CCc1cc2c(cc1N1CCC(N3CCOCC3)CC1)C(C)(C)c1[nH]c3cc(C#N)ccc3c1C2=O` [ALECTINIB], the Kd in assay [1], in assay [2], in assay [3], in assay [4], in assay [5] and in assay [6] was > 30 µM (inactive) each time.

With `C#Cc1cccc(Nc2ncnc3cc4c(cc23)OCCOCCOCCO4)c1` [ICOTINIB], the Kd in assay [1], in assay [2], in assay [3], in assay [4], in assay [5] and in assay [6] was > 30 µM (inactive) in each case.

For `CC1(COc2ccc3c(c2)ncn3-c2ccc3cccc(N4CCC(N)CC4)c3n2)COC1` [CRENOLANIB], the Kd in assay [1] is > 30 µM (inactive); in assay [2], > 30 µM (inactive); in assay [3], > 30 µM (inactive); in assay [4] it was 1.33 µM; in assay [5], > 30 µM (inactive); in assay [6], > 30 µM (inactive).

On to `Cn1c(=O)c(F)c(Nc2ccc(I)cc2F)c2c(=O)n(C[C@@H](O)CO)cnc21` [TAK-733], for which the Kd in assay [1], in assay [2], in assay [3], in assay [4], in assay [5] and in assay [6] was > 30 µM (inactive) in each case.

With `FC(F)(F)c1ccc(CNc2ccc(Cc3c[nH]c4ncc(Cl)cc34)cn2)cn1` [PEXIDARTINIB], the Kd in assay [1], in assay [2], in assay [3], in assay [4], in assay [5] and in assay [6] was > 30 µM (inactive) throughout.

As for `COc1ccc2c(OCc3nnc4ccc(-c5ccccc5)nn34)ccnc2c1` [AMG-208], the Kd in assay [1], in assay [2], in assay [3], in assay [4], in assay [5] and in assay [6] was > 30 µM (inactive) in each case.

For `Cc1cc(-c2cc(OC(=O)c3ccccc3)ccc2Cl)cc2nnc(Nc3ccc(OCCN4CCCC4)cc3)nc12` [TG100-801], the Kd in assay [1], in assay [2], in assay [3], in assay [4], in assay [5] and in assay [6] was > 30 µM (inactive) each time.

For `O=C(NC[C@H](O)CO)c1ccncc1Nc1ccc(I)cc1F` [PIMASERTIB], the Kd in assay [1], in assay [2], in assay [3], in assay [4], in assay [5] and in assay [6] was > 30 µM (inactive) in each case.

As for `c1cc(OCCN2CCCCC2)cc(-c2n[nH]c3ccc(-c4nc[nH]n4)cc23)c1` [CC-401], the Kd in assay [1], in assay [2], in assay [3], in assay [4], in assay [5] and in assay [6] was > 30 µM (inactive) each time.

With `NC(=O)c1ccc(N(C(N)=O)c2c(F)cccc2F)nc1-c1ccc(F)cc1F` [VX-702], the Kd in assay [1], in assay [2], in assay [3], in assay [4], in assay [5] and in assay [6] was > 30 µM (inactive) each time.

`CC(C)(O)CC(=O)NCCn1ccc2ncnc(Nc3ccc(Oc4cccc(C(F)(F)F)c4)c(Cl)c3)c21` [TAK-285]: the Kd in assay [1], in assay [2], in assay [3], in assay [4], in assay [5] and in assay [6] was > 30 µM (inactive) throughout.
